The results in this text go back to patent US12310975B2, “Modulators of BCL6 proteolysis and associated methods of use” (Arvinas Operations, Inc., priority 2019, dated 2025).

The target in one assay is T1, BCL6 (Homo sapiens (Human), UniProt P41182). Description: Immunofluorescence high content imaging of BCL6 degradation in T47D cells. It counts as cell-based. Particulars: T47D. In outline:
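T47D cells were treated 3 days at 37 °C with an 11-point 3-fold dilution series (top 0.1 or 1 μM), then fixed, permeabilized and immunostained for BCL6 with Alexa-488 secondary, CellMask and Hoechst. BCL6 signal was imaged at 10×, 4 fields/well, with top-hat smoothing.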
Compound `CNC(=O)COc1cc2cc(Nc3nc(N4CCC(OC5CC6(CCN(c7cccc(C(=O)NC8CCC(=O)NC8=O)c7OC)CC6)C5)CC4)ncc3Cl)ccc2n(C(C)C)c1=O` (stereo not drawn) [compound 449, 3-[2-({1-[5-chloro-4-({3-[(methylcarbamoyl)methoxy]-2-oxo-1-(propan-2-yl)-1,2-dihydroquinolin-6-yl}amino)pyrimidin-2-yl]piperidin-4-yl}oxy)-7-azaspiro[3.5]nonan-7-yl]-N-(2,6-dioxopiperidin-3-yl)-2-methoxybenzamide] yielded a Dmax of 50 to 70%.
For `CNC(=O)COc1cc2cc(Nc3nc(N4CCN(C(C)(C)C5CCN(c6ccc(OC)c(C(=O)NC7CCC(=O)NC7=O)c6F)CC5)CC4)ncc3Cl)ccc2n(C)c1=O` (stereo not drawn) [compound 468, 3-[4-(2-{4-[5-chloro-4-({1-methyl-3-[(methylcarbamoyl)methoxy]-2-oxo-1,2-dihydroquinolin-6-yl}amino)pyrimidin-2-yl]piperazin-1-yl}propan-2-yl)piperidin-1-yl]-N-(2,6-dioxopiperidin-3-yl)-2-fluoro-6-methoxybenzamide], the Dmax is ≥ 70%.
The same measure, in the same setting: next, `CNC(=O)COc1cc2cc(Nc3nc(N4CCC(C5(N6CCC(c7ccc8c(c7)C(=O)N(C7CCC(=O)NC7=O)C8=O)CC6)CC5)CC4)ncc3Cl)ccc2n(C)c1=O` (stereo not drawn) [compound 482, 2-{[6-({5-chloro-2-[4-(1-{4-[2-(2,6-dioxopiperidin-3-yl)-1,3-dioxo-2,3-dihydro-1H-isoindol-5-yl]piperidin-1-yl}cyclopropyl)piperidin-1-yl]pyrimidin-4-yl}amino)-1-methyl-2-oxo-1,2-dihydroquinolin-3-yl]oxy}-N-methylacetamide]: 50 to 70%.

The same assay, now with this note: T47D cells.
Take `CNC(=O)COc1cc2cc(Nc3nc(N4CCC(CN5CC6(CCN(c7ccc8c(c7)CN(C7CCC(=O)NC7=O)C8=O)CC6)C5)CC4)ncc3Cl)ccc2n(C(C)C)c1=O` (stereo not drawn) [compound 436, 2-{[6-({5-chloro-2-[4-({7-[2-(2,6-dioxopiperidin-3-yl)-1-oxo-2,3-dihydro-1H-isoindol-5-yl]-2,7-diazaspiro[3.5]nonan-2-yl}methyl)piperidin-1-yl]pyrimidin-4-yl}amino)-2-oxo-1-(propan-2-yl)-1,2-dihydroquinolin-3-yl]oxy}-N-methylacetamide]: the Dmax was ≥ 70% and the IC50 was < 10 nM.
The like results for `CNC(=O)COc1cc2cc(Nc3nc(N4CCC(CN5CCC6(CCN(c7ccc8c(c7)CN(C7CCC(=O)NC7=O)C8=O)C6)C5)CC4)ncc3Cl)ccc2n(C(C)C)c1=O` (stereo not drawn) [compound 437, 2-{[6-({5-chloro-2-[4-({7-[2-(2,6-dioxopiperidin-3-yl)-1-oxo-2,3-dihydro-1H-isoindol-5-yl]-2,7-diazaspiro[4.4]nonan-2-yl}methyl)piperidin-1-yl]pyrimidin-4-yl}amino)-2-oxo-1-(propan-2-yl)-1,2-dihydroquinolin-3-yl]oxy}-N-methylacetamide] were, in that order, ≥ 70% and < 10 nM.
Take `CNC(=O)COc1cc2cc(Nc3nc(N4CCC(CN5CC6(CCN(c7ccc(C(=O)NC8CCC(=O)NC8=O)c(OC)c7)CC6)C5)CC4)ncc3Cl)ccc2n(C(C)C)c1=O` (stereo not drawn) [compound 438, 4-[2-({1-[5-chloro-4-({3-[(methylcarbamoyl)methoxy]-2-oxo-1-(propan-2-yl)-1,2-dihydroquinolin-6-yl}amino)pyrimidin-2-yl]piperidin-4-yl}methyl)-2,7-diazaspiro[3.5]nonan-7-yl]-N-(2,6-dioxopiperidin-3-yl)-2-methoxybenzamide]: the Dmax was ≥ 70% and the IC50 fell in the range of 10 to 50 nM.
Consider `CNC(=O)COc1cc2cc(Nc3nc(N4CCC(CN5CC6(CCN(c7cccc8c7C(=O)N(C7CCC(=O)NC7=O)C8=O)CC6)C5)CC4)ncc3Cl)ccc2n(C(C)C)c1=O` (stereo not drawn) [compound 439, 2-{[6-({5-chloro-2-[4-({7-[2-(2,6-dioxopiperidin-3-yl)-1,3-dioxo-2,3-dihydro-1H-isoindol-4-yl]-2,7-diazaspiro[3.5]nonan-2-yl}methyl)piperidin-1-yl]pyrimidin-4-yl}amino)-2-oxo-1-(propan-2-yl)-1,2-dihydroquinolin-3-yl]oxy}-N-methylacetamide], for which the Dmax lay in the range of 50 to 70% and the IC50 is < 10 nM.
For the compound `CNC(=O)COc1cc2cc(Nc3nc(N4CCC(CN5CC6(CCN(c7cccc(C(=O)NC8CCC(=O)NC8=O)c7F)CC6)C5)CC4)ncc3Cl)ccc2n(C(C)C)c1=O` (stereo not drawn) [compound 440, 3-[2-({1-[5-chloro-4-({3-[(methylcarbamoyl)methoxy]-2-oxo-1-(propan-2-yl)-1,2-dihydroquinolin-6-yl}amino)pyrimidin-2-yl]piperidin-4-yl}methyl)-2,7-diazaspiro[3.5]nonan-7-yl]-N-(2,6-dioxopiperidin-3-yl)-2-fluorobenzamide], the Dmax is ≥ 70% and the IC50 was < 10 nM.
As for `CNC(=O)COc1cc2cc(Nc3nc(N4CCC(CN5CC6(CCN(c7cccc(C(=O)NC8CCC(=O)NC8=O)c7OC)CC6)C5)CC4)ncc3Cl)ccc2n(C(C)C)c1=O` (stereo not drawn) [compound 441, 3-[2-({1-[5-chloro-4-({3-[(methylcarbamoyl)methoxy]-2-oxo-1-(propan-2-yl)-1,2-dihydroquinolin-6-yl}amino)pyrimidin-2-yl]piperidin-4-yl}methyl)-2,7-diazaspiro[3.5]nonan-7-yl]-N-(2,6-dioxopiperidin-3-yl)-2-methoxybenzamide], the IC50 is ≥ 100 nM.
For `CNC(=O)COc1cc2cc(Nc3nc(N4CCC(CN5CCC6(CC5)CN(c5cccc7c5CN(C5CCC(=O)NC5=O)C7=O)C6)CC4)ncc3Cl)ccc2n(C(C)C)c1=O` (stereo not drawn) [compound 442, 2-{[6-({5-chloro-2-[4-({2-[2-(2,6-dioxopiperidin-3-yl)-1-oxo-2,3-dihydro-1H-isoindol-4-yl]-2,7-diazaspiro[3.5]nonan-7-yl}methyl)piperidin-1-yl]pyrimidin-4-yl}amino)-2-oxo-1-(propan-2-yl)-1,2-dihydroquinolin-3-yl]oxy}-N-methylacetamide], the Dmax was ≥ 70% and the IC50 was < 10 nM.
For `CNC(=O)COc1cc2cc(Nc3nc(N4CCC5(CC4)CN(CC4CCN(c6cccc7c6CN(C6CCC(=O)NC6=O)C7=O)CC4)C5)ncc3Cl)ccc2n(C(C)C)c1=O` (stereo not drawn) [compound 443, 2-{[6-({5-chloro-2-[2-({1-[2-(2,6-dioxopiperidin-3-yl)-1-oxo-2,3-dihydro-1H-isoindol-4-yl]piperidin-4-yl}methyl)-2,7-diazaspiro[3.5]nonan-7-yl]pyrimidin-4-yl}amino)-2-oxo-1-(propan-2-yl)-1,2-dihydroquinolin-3-yl]oxy}-N-methylacetamide], in that order: 50 to 70% and < 10 nM.

The next assay deals with T1, BCL6. Description: BCL6 TR-FRET assay (BCL6-Avitag-Biotin / BCoR-Cy5 peptide). It counts as binding.
Conditions: not given
The protocol:
Protein Synthesis. BCL6 protein was expressed by transforming Invitrogen One Shot cells with GS63525 pET24a-His-SUMO-TEV-BCLm-Avitag plasmid following manufacturer's instructions. In addition, biotin at a final concentration of 50 μM, and IPTG at a final concentration of 1 mM was added to the culture and incubated at room temperature shaking overnight.
Assay buffer A: 50 mM HEPES pH 7.5, 125 mM NaCl, 0.01% TritonX.
Assay buffer B (made fresh): buffer A+1 mM Glutathione (or 0.5 mM DTT).
Assay buffer C (made fresh): buffer B+0.03% BSA.
Black Proxy plates, 96 well.
15 μl final reaction volumes (BCoR-Cy5 100 nM, SA-Eu 2 nM, BCL6-avitag 2 nM).
[…] BCL6-Avitag-Biotin stock: made fresh by adding 2 μl of BCL6-Avitag-Biotin to 31.5 ml Buffer C.
1 mM BCoR-Cy5 peptide (LifeTein) stock in Dimethylformamide (DMF).
300 nM BCoR-Cy5 working stock: made fresh by adding 4.5 μl of the 1 mM BCoR-Cy5 peptide stock to 15 ml Buffer B.
10 μM Eu-Streptavidin (Lance Eu-W1024 Streptavidin, PerkinElmer) stock solution.
6 nM Eu-Streptavidin working stock: made fresh by adding 9 μl Eu-Streptavidin stock solution to 15 ml Buffer A.
Compounds were diluted to 10 mM. Twenty microliters of DMSO was aliquoted to each well of the microtiter plates. From the 10 mM compound stock, 8.7 ul was aliquoted to the 20 ul DMSO and 3-fold serial dilutions (12 pt 3-0.01 uM tritration plate, 96 well, 100% DMSO) performed. Five ul from the titration plate wells was aliquoted to 45 ul Buff C (Intermediate dilution plates, 10% DMSO).
Spot 1.5 μl compound titrations to 384-well plates in duplicate, and spot 3.5 μl [8.5 nM] BCL6-bio protein to each well. The plate was mix briefly, centrifuged, and incubated for 30 minutes at room temperature.
Mix 14 mls of BCoR-Cy5 [300 nM] and 14 mls [6 nM] Eu-Streptavidin. Spot 10 μl BCoR-Cy5/SA-Eu (1:1) mix to each well. The plates were incubated for 2 hours and then read on an Envision plate reader.
As for `CNC(=O)COc1cc2cc(Nc3nc(N4CCC[C@H](COc5cccc6c5C(=O)N(C5CCC(=O)NC5=O)C6=O)C4)ncc3Cl)ccc2n(C)c1=O` (stereo partly drawn) [compound 192, 2-((6-((5-chloro-2-((3S)-3-(((2-(2,6-dioxopiperidin-3-yl)-1,3-dioxoisoindolin-4-yl)oxy)methyl)piperidin-1-yl)pyrimidin-4-yl)amino)-1-methyl-2-oxo-1,2-dihydroquinolin-3-yl)oxy)-N-methylacetamide], the EC50 was > 100 nM.
Turning to `Cn1c(=O)c(OC2COC2)cc2cc(Nc3nc(N4CCC(CN5CCN(c6ccc7c(c6)C(=O)N(C6CCC(=O)NC6=O)C7=O)CC5)CC4)ncc3Cl)ccc21` (stereo not drawn) [compound 223, 5-(4-((1-(5-chloro-4-((1-methyl-3-(oxetan-3-yloxy)-2-oxo-1,2-dihydroquinolin-6-yl)amino)pyrimidin-2-yl)piperidin-4-yl)methyl)piperazin-1-yl)-2-(2,6-dioxopiperidin-3-yl)isoindoline-1,3-dione], the EC50 is > 100 nM.

Staying with this assay, now noted: read-out: IC50.
`CNC(=O)COc1cc2cc(Nc3nc(N4CCC(O[C@H]5C[C@@H](COc6ccc7c(c6)C(=O)N(C6CCC(=O)NC6=O)C7=O)N(C)C5)CC4)ncc3Cl)ccc2n(C(C)C)c1=O` (stereo partly drawn) [compound 456, 2-[(6-{[5-chloro-2-(4-{[(3S,5S)-5-({[2-(2,6-dioxopiperidin-3-yl)-1,3-dioxo-2,3-dihydro-1H-isoindol-5-yl]oxy}methyl)-1-methylpyrrolidin-3-yl]oxy}piperidin-1-yl)pyrimidin-4-yl]amino}-2-oxo-1-(propan-2-yl)-1,2-dihydroquinolin-3-yl)oxy]-N-methylacetamide]: the IC50 was ≥ 100 nM.
